Holding throughout (type): in vivo
The test system of one data set is Myzus persicae. The data set is described as follows: Critical concentration test / root-systemic action, Myzus persicae. The settings on record: Wirkstoffkonzentration 20 ppm im Boden, Kohl (Brassica oleracea), Besatz nach 7 Tagen, Auswertung nach weiteren 2 Tagen; for mortality at 20 µg/mL: Myzus persicae, 48 h, read-out: wurzelsystemische Wirkung. The text has this:
Grenzkonzentrations-Test / Wurzelsystemische Wirkung Testinsekt: Myzus persicae Lösungsmittel: 3 Gewichtsteile Aceton Emulgator: 1 Gewichtsteil Alkylarylpolyglykolether
(§1) Zur Herstellung einer zweckmäßigen Wirkstoffzubereitung vermischt man 1 Gewichtsteil Wirkstoff mit der angegebenen Menge Lösungsmittel, gibt die angegebene Menge Emulgator zu und verdünnt das Konzentrat mit Wasser auf die gewünschte Konzentration.
(§2) Die Wirkstoffzubereitung wird innig mit Boden vermischt. Dabei spielt die Konzentration des Wirkstoffs in der Zubereitung praktisch keine Rolle, entscheidend ist allein die Wirkstoffgewichtsmenge pro Volumeneinheit Boden, welche in ppm (= mg/1) angegeben wird. Man füllt den behandelten Boden in Töpfe und bepflanzt diese mit Kohl (Brassica oleracea). Der Wirkstoff kann so von den Pflanzenwurzeln aus dem Boden aufgenommen und in die Blätter transportiert werden.
(§3) Für den Nachweis des wurzelsystemischen Effektes werden nach 7 Tagen ausschließlich die Blätter mit den obengenannten Testtieren besetzt. Nach weiteren 2 Tagen erfolgt die Auswertung durch Zählen oder Schätzen der toten Tiere. Aus den Abtötungszahlen wird die wurzelsystemische Wirkung des Wirkstoffs abgeleitet. Sie ist 100 %, wenn alle Testtiere abgetötet sind und 0 %, wenn noch genau so viele Testinsekten leben wie bei der unbehandelten Kontrolle.

For the next data set, the system named is Nephotettix cincticeps. The data set is described as follows: Nephotettix test (rice seedlings dipped in the active compound preparation). The settings on record: for mortality at 0.0001 %: Nephotettix cincticeps, 144 h, read-out: Wirkung (Abtötung in %). The text has this:
(§4) Lösungsmittel: 7 Gewichtsteile Dimethylformamid Emulgator: 1 Gewichtsteil Alkylarylpolyglykolether
Zur Herstellung einer zweckmäßigen Wirkstoffzubereitung vermischt man 1 Gewichstteil Wirkstoff mit der angegebenen Menge Lösungsmittel und der angegebenen Menge Emulgator und verdünnt das Konzentrat mit Wasser auf die gewünschte Konzentration.
Reiskeimlinge (Oryza sativa) werden durch Tauchen in die Wirkstoffzubereitung der gewünschten Konzentration behandelt und mit der Grünen Reiszikade (Nephotettix cincticeps) besetzt, solange die Keimlinge noch feucht sind.
Nach der gewünschten Zeit wird die Abtötung in % bestimmt. Dabei bedeutet 100 %, daß alle Zikaden abgetötet wurden; 0 % bedeutet, daß keine Zikaden abgetötet wurden.

The test system of data set [1] is Phaedon cochleariae-Larven. The data set is described as follows: Critical concentration test / root-systemic action, Phaedon cochleariae larvae. The settings on record: Wirkstoffkonzentration 20 ppm im Boden, Kohl (Brassica oleracea), Besatz nach 7 Tagen, Auswertung nach weiteren 2 Tagen.
Excerpt: Grenzkonzentrations-Test / Wurzelsystemische Wirkung Testinsekt: Phaedon cochleariae-Larven Lösungsmittel: 3 Gewichtsteile Aceton
Emulgator: 1 Gewichtsteil Alkylarylpolyglykolether
as §1, §2, §3

A further data set deals with Aphis fabae. The data set is described as follows: Aphis test (systemic action, soil drench of bean plants). The settings on record: 96 h, read-out: Wirkung (Abtötung in %). The method, then:
Aphis-Test (systemische Wirkung)
as §4
Zur Herstellung einer zweckmäßigen Wirkstoffzubereitung vermischt man 1 Gewichtsteil Wirkstoff mit der angegebenen Menge Lösungsmittel und der angegebenen Menge Emulgator und verdünnt das Konzentrat mit Wasser auf die gewünschte Konzentration.
Mit je 20 ml Wirkstoffzubereitung der gewünschten Konzentration werden Bohnenpflanzen (Vicia faba), die stark von der schwarzen Bohnenlaus (Aphis fabae) befallen sind, angegossen, so daß die Wirkstoffzubereitung in den Boden eindringt, ohne den Sproß zu benetzen. Der Wirkstoff wird von den Wurzeln aufgenommen und in den Sproß weitergeleitet.
Nach der gewünschten Zeit wird die Abtötung in % bestimmt. Dabei bedeutet 100 %, daß alle Blattläuse abgetötet wurden; 0 % bedeutet, daß keine Blattläuse abgetötet wurden.

Data set [2] has as its system Lucilia cuprina resistent-Larven. The data set is described as follows: Test with resistant Lucilia cuprina larvae. The settings on record: 24 h, Wirkstoffkonzentration 100 ppm, nach 24 Stunden, read-out: Abtötung. The text has this:
Test mit Lucilia cuprina resistent-Larven
Emulgator: 35 Gewichtsteile Ethylenglykolmonomethylether 35 Gewichtsteile Nonylphenolpolyglykolether
Zur Herstellung einer zweckmäßigen Wirkstoffzubereitung vermischt man drei Gewichtsteile Wirkstoff mit sieben Gewichtsteilen des oben angegebenen Gemisches und verdünnt das so erhaltene Konzentrat mit Wasser auf die jeweils gewünschte Konzentration.
Etwa 20 Lucilia cuprina res.-Larven werden in ein Teströhrchen gebracht, welches ca. 1 cm^3 Pferdefleisch und 0,5 ml der Wirkstoffzubereitung enthält. Nach 24 Stunden wird der Abtötungsgrad bestimmt.

Where [3] appears, read: Wirkstoffkonzentration 0,0001 %, nach 6 Tagen, Reiskeimlinge (Oryza sativa) getaucht.
Setting [4] is: Wirkstoffkonzentration 0,01 %, nach 4 Tagen, Bohnenpflanzen (Vicia faba) angegossen, systemisch.

Like-named read-outs stand apart in the source and are kept apart here.

Consider `O=C(C=C1SCCN1Cc1ccc(Cl)nc1)C(F)(F)F` [Beispiel 3, 3-(6-Chlor-pyrid-3-yl)-methyl-2-(trifluormethylcarbonylmethylen)-1,3-thiazolidin], for which the “wurzelsystemische Wirkung” value (in the data set on Myzus persicae; in data set [1]) was 100% each time. In addition, in the data set with Nephotettix cincticeps (setting [3]), the “Wirkung (Abtötung in %)” value was 90%.
Take `O=C(C=C1NCCN1Cc1ccc(Cl)nc1)C(F)(F)F` [Beispiel 4, 1-(6-Chlor-pyrid-3-yl)-methyl-2-(trifluormethylcarbonylmethylen)-imidazolidin]: the mortality at 20 µg/mL in the data set on Myzus persicae turned out to be 100%. Moreover, the mortality at 0.01 % with Aphis fabae (setting [4]) is 100%. Moreover, the mortality at 100 µg/mL in data set [2] came to 100%.
On to `O=C(C(C(=O)C(F)(F)F)=C1NCCN1Cc1ccc(Cl)nc1)C(F)(F)F` [Beispiel 5, 2-[(Di-trifluormethylcarbonyl)-methylen]-3-(6-chlor-pyrid-3-yl)-methylimidazolidin], for which the mortality at 20 µg/mL with Myzus persicae was 100%. The mortality at 0.01 % with Aphis fabae (setting [4]) stood at 100%. Besides, in the data set on Nephotettix cincticeps (setting [3]), the mortality at 0.0001 % worked out at 100%. Besides, the mortality at 100 µg/mL in data set [2] was found to be 100%.
With `O=C(C=C1NCCCN1Cc1ccc(Cl)nc1)C(F)(F)F` [Beispiel 8], the mortality at 20 µg/mL in the data set with Myzus persicae turned out to be 100%; in data set [1] (Phaedon, 48 h, read-out: wurzelsystemische Wirkung), 100%. Also, the mortality at 0.01 % in the data set with Aphis fabae (setting [4]) came to 100%. Besides, the mortality at 100 µg/mL in data set [2] was 100%.
As to `O=C(C(C(=O)C(F)(F)F)=C1NCCCN1Cc1ccc(Cl)nc1)C(F)(F)F` [Beispiel 9], in data set [2], the mortality at 100 µg/mL turned out to be 100%.
Turning to `O=[N+]([O-])C=C1NCCCS1` [Vergleichssubstanz (A), Tetrahydro-2-nitromethylen-2H-1,3-thiazin, reference compound], the “wurzelsystemische Wirkung” value (with Myzus persicae; in data set [1]) was “keine Wirkung” in each case. For the same compound, the mortality at 0.01 % with Aphis fabae worked out at 50%. Moreover, the mortality at 0.0001 % with Nephotettix cincticeps is 20%.

The record behind these values is patent publication EP0268915A2, “Trifluoromethylcarbonyl derivatives” (BAYER AG, priority 1986, dated 1988).
